Measured values: patent US8969333B2, “Therapeutic compositions and methods” (The Penn State Research Foundation, priority 2010, dated 2015)

What was measured:
LC3 = assay: Western blot of LC3 cleavage (autophagy); assay type: cell-based, human; conditions: U2OS cells, concentration-dependent
Procedure: YW3-56 induces cell death by autophagy, a cell death process in which cellular proteins and organelles are degraded by fusion with lysosomes. Cleavage of LC3-I to generate a fast migrating isoform LC3-II is a characteristic autophagy event. LC3 cleavage is induced after YW3-56 treatment in a concentration-dependent manner as shown in the Western blot in FIG. 6. Western blot and immunostaining was performed essentially as described in Li, P. et al., Oncogene 29 (21), 3153-3162 (2010). Antibodies used in Western blot were anti-p53 (Sigma), anti-PAD4, anti-p21 (Sigma), anti-PUMA (Calbiochem), anti-SESN2 (Abeam), anti-p70S6K (Cell Signaling), anti-p70S6K-[…] (Cell Signaling), anti-LC3 (Cell Signaling) and anti-β-actin (Sigma) at appropriate dilutions. Anti-LC3B antibody (Cell Signaling) was used for immunostaining. DNA was stained by the DNA dye Hoechst.

p53 and its target genes [1] = assay: RT-qPCR of p53 and its target gene mRNA in liver and spleen of treated nude mice; assay type: in vivo, mouse; conditions: YW3-56 10 mg/kg, 3 months
Procedure: (§1) RNA was extracted using RNeasy Mini Kit (Qiagen) per manufacturer's instructions. 1 μg RNA was reverse transcribed into cDNA using qScript cDNA SuperMix (Quanta Biosciences) per manufacturer's instructions. Quantitative PCR was performed using SYBR Green SuperMix (Quanta Biosciences) in StepOnePlus Real-Time PCR System (Applied Biosystems). FIG. 10 is a graph showing p53 and its target gene expression induced in S180 cells by YW3-56 in a concentration dependent manner.
Expression of p53 and its target genes in mouse liver and spleen after YW3-56 injection at 10 mg/kg body weight once every two days for 3 months.
FIGS. 11a and 11b show results of the effect of long term YW3-56 treatment in mice. A pair of nude mice is mock injected or injected with YW3-56 for three months. RT-qPCR analyses of p53 and its target gene mRNA levels in control and YW3-56 treated mice. […] However, these changes are at low levels and no clear change in liver weight and morphology is observed.

S180 tumor = assay: Sarcoma S180 cell-derived mouse tumor model; assay type: in vivo; conditions: YW3-56 10 mg/kg i.p. daily for 1 week
From the text: A well-established sarcoma S180 cell-derived mouse tumor model is used in this example to determine the effects of PAD4 inhibitors of the present invention on tumor growth in mice.
S180 ascites tumor cells were used to form solid tumors after subcutaneous injection essentially as described in Wang, W. et al., Mol. Biosyst., 2011, 7:766-772. In brief, for initiation of subcutaneous tumors, the cells were obtained as an ascitic form from the tumor-bearing mice, which were serially transplanted once per week. Subcutaneous tumors were implanted by injecting 0.2 ml of 0.9% saline containing 1×10^7 viable tumor cells under the skin on the right armpit. 24 hr after implantation, male ICR mice were randomly divided into experimental groups. The mice in the positive control group were given a daily i.p injection of 2 mg/kg of doxorubicin in 0.2 ml of 0.9% saline for 7 consecutive days. The mice in the negative control group were given a daily i.p injection of 0.2 ml of 0.9% saline for 7 consecutive days. The mice in the treatment groups were given a daily i.p injection of YW3-56 (10 mg/kg), SAHA (5 mg/kg), or a combination of YW3-56 (5 mg/kg) and SAHA (2.5 mg/kg) for 7 consecutive days. The weights of the mice were recorded every day. 24 hr after the last administration, all mice were weighed, euthanized and immediately dissected to obtain and weigh the tumor and vital organs.

S180 cells = assay: MTT assay of S180 cell growth inhibition; assay type: cell-based; conditions: Mus musculus, S-180
Procedure: (§2) Cells were treated with individual compounds at different concentrations for 72 hr in 24-well plates. MTT reagent was added to a final concentration of 0.5 mg/ml and further incubated for 4 hr. The yellow-colored MTT was reduced to insoluble purple-colored Formazan in living cells. Culture medium was removed and DMSO was added to dissolve Formazan into solution. The absorbance of the solution was then measured at 570 nm using a Thermo BioMate™ 3 spectrophotometer.

[2] = system: U2OS human osteosarcoma cells; assay: MTT assay of U2OS cancer cell growth inhibition; assay type: cell-based
Procedure: as §2, with “MIT assays are conducted to evaluate activity to inhibit cancer cell growth. U2OS human osteosarcoma cells were” for “Cells were”, “plates. MIT” for “plates. MTT”, “spectrophotometer. Results are shown in FIG. 1 and average and standard deviations are shown (n>=3).” for “spectrophotometer.”
as §2

p53 and its target genes [3] = assay: RT-qPCR of p53 and its target genes in S180 cells; assay type: cell-based, mouse; conditions: concentration dependent
Procedure: as §1

## CN(C)c1ccc2cc(C(=O)N[C@@H](CCCNC(=N)CCl)C(=O)NCc3ccccc3)ccc2c1 [YW3-56]
LC3
  LC3 cleavage: induced
p53 and its target genes [1]; decrease
  OKL38 mRNA change in liver: ~2 fold
  PUMA mRNA change in liver: ~2 fold
p53 and its target genes [1]; increase
  p21 mRNA change in liver: ~2 fold
  p53 mRNA change in liver: ~2 fold
p53 and its target genes [1]; 2-fold expression change as cut off
  changes in gene expression in spleen: not detected
S180 tumor
  growth of S180 tumor relative to control group: ~51.5%
S180 cells
  IC50: 10 to 15 µM
[2]; 20 μM, 3 days
  U2OS cell growth in MTT assay: abolished cell growth
[2]; Homo sapiens, read-out: 50% inhibition Cell growth, U2OS cells, MTT, 72 hr
  IC50: ~2500 nM
p53 and its target genes [3]
  expression of p53 and its target genes including SESN1 and SESN2: induced the expression
